Assay results from PMC8620908, “Design, Synthesis, In Vitro Anticancer Evaluation and Molecular Modelling Studies of 3,4,5-Trimethoxyphenyl-Based Derivatives as Dual EGFR/HDAC Hybrid Inhibitors” (Pharmaceuticals, 2021).
Like-named read-outs stand apart in the source and are kept apart here.

Legend:
A549 = assay: Antiproliferative MTT assay, A549; conditions: Homo sapiens, A549, read-out: Antiproliferative Activity IC50 ± SEM, A549
MCF-7 = assay: Antiproliferative MTT assay, MCF-7; conditions: Homo sapiens, MCF7, read-out: Antiproliferative Activity IC50 ± SEM, MCF-7
HepG2 = assay: Antiproliferative MTT assay, HepG2; conditions: Homo sapiens, HepG2, read-out: Antiproliferative Activity IC50 ± SEM, HepG2
HCT116 = assay: Antiproliferative MTT assay, HCT116; conditions: Homo sapiens, HCT-116, read-out: Antiproliferative Activity IC50 ± SEM, HCT116
EGFR = EGFR (Homo sapiens, UniProt P00533); assay: EGFR-TK inhibition, cell-free assay; assay type: biochemical
HDAC1 = HDAC1 (Homo sapiens, UniProt Q13547); assay: In vitro HDAC inhibition assay, HDAC1
HDAC2 = HDAC2 (Homo sapiens, UniProt Q92769); assay: In vitro HDAC inhibition assay, HDAC2
HDAC4 = HDAC4 (Homo sapiens, UniProt P56524); assay: In vitro HDAC inhibition assay, HDAC4
HDAC6 = target: T1, HDAC6 (Homo sapiens, UniProt Q9UBN7); assay: In vitro HDAC inhibition assay, HDAC6
T1 sequence (Q9UBN7 1-1215): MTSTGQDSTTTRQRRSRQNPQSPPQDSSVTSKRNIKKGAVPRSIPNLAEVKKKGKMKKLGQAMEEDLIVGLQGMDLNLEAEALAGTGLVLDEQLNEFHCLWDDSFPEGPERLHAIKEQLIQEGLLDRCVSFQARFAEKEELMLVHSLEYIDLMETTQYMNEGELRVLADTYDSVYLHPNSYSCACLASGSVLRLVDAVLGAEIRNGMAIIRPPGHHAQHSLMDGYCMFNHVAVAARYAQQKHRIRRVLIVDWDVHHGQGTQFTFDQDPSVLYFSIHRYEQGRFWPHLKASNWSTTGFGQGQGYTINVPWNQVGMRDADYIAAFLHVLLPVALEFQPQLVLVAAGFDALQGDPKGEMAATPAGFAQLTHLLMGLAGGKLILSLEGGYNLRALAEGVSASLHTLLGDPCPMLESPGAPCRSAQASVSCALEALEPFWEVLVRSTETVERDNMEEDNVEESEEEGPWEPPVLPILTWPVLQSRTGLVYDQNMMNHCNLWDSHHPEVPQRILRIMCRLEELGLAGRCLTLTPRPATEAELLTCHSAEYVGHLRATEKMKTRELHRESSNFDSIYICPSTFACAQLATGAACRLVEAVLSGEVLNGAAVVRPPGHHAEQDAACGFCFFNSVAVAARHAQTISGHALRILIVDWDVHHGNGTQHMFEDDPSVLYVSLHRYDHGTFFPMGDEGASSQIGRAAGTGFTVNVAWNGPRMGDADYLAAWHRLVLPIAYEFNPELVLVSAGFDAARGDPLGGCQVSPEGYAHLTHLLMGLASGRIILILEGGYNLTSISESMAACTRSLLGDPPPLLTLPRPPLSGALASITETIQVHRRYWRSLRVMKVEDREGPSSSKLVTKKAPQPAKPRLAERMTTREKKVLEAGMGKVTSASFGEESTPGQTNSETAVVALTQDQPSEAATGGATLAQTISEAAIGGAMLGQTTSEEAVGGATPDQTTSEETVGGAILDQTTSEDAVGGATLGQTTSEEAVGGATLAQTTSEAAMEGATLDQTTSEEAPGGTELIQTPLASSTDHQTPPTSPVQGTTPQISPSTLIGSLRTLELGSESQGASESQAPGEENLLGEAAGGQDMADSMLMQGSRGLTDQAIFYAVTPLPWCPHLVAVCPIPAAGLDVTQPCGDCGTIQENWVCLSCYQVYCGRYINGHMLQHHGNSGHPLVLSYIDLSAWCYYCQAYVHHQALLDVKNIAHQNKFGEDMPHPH

HDAC8 = target: T2, HDAC8 (Homo sapiens, UniProt Q9BY41); assay: In vitro HDAC inhibition assay, HDAC8
T2 sequence (Q9BY41 1-377): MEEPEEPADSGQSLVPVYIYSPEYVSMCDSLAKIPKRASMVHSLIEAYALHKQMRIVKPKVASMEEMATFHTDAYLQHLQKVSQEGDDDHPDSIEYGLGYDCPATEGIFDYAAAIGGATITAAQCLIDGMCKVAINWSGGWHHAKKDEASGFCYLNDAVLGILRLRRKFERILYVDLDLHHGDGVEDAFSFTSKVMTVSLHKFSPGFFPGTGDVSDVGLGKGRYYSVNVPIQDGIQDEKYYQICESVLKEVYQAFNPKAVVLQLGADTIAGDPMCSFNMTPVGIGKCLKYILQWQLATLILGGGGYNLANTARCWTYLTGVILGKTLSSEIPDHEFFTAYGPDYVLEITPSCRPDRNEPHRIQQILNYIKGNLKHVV

Caspase-3 = Caspase-3 level assay in HepG2 cancer cell line; assay type: cell-based, human
Caspase-8 = Caspase-8 level assay in HepG2 cancer cell line; assay type: cell-based, human; conditions: HepG2 cancer cell line
Bax = Bax level assay in HepG2 cancer cell line; assay type: cell-based; conditions: HepG2 cancer cell line

Sequence of HDAC1 (Q13547 whole entry): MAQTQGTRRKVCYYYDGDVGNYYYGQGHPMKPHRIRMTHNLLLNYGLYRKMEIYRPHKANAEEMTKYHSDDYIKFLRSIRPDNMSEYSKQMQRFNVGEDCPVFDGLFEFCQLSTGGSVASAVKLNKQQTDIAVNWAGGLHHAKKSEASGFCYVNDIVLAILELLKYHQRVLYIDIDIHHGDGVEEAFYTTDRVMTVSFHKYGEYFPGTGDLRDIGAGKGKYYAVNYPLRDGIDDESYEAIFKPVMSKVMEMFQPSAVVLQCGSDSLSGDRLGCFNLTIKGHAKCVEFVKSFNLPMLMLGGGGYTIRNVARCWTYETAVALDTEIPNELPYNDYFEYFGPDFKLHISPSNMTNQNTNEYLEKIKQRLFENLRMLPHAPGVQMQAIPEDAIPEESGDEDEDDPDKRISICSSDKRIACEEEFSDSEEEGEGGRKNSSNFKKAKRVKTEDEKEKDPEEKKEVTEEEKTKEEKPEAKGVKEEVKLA
Sequence of HDAC4 (P56524 whole entry): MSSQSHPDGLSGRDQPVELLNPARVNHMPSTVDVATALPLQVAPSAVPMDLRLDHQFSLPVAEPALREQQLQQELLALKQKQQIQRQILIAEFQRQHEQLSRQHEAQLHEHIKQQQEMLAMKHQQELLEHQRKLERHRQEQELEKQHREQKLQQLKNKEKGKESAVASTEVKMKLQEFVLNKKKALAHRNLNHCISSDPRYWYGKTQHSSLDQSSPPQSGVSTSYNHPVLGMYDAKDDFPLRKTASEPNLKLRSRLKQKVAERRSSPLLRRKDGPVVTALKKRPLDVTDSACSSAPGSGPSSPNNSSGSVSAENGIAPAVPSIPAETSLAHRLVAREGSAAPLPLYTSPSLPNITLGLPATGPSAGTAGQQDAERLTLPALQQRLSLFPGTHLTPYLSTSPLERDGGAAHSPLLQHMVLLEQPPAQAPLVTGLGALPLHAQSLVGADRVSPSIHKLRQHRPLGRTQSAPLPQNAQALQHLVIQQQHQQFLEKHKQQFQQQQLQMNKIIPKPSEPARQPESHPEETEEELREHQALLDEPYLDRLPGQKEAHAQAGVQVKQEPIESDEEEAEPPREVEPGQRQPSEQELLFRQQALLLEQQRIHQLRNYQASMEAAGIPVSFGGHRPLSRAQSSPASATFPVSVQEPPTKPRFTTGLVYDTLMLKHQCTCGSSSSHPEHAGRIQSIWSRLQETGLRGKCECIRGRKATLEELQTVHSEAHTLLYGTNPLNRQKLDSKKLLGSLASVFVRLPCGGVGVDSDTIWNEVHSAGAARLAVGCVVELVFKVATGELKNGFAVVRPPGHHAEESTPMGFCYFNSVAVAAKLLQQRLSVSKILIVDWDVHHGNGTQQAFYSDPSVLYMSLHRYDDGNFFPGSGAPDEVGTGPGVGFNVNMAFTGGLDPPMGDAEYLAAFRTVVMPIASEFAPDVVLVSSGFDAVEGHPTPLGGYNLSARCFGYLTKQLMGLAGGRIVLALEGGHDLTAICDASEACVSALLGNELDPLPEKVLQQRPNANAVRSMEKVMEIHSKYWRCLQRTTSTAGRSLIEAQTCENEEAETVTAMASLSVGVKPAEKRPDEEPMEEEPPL
Sequence of HDAC2 (Q92769 whole entry): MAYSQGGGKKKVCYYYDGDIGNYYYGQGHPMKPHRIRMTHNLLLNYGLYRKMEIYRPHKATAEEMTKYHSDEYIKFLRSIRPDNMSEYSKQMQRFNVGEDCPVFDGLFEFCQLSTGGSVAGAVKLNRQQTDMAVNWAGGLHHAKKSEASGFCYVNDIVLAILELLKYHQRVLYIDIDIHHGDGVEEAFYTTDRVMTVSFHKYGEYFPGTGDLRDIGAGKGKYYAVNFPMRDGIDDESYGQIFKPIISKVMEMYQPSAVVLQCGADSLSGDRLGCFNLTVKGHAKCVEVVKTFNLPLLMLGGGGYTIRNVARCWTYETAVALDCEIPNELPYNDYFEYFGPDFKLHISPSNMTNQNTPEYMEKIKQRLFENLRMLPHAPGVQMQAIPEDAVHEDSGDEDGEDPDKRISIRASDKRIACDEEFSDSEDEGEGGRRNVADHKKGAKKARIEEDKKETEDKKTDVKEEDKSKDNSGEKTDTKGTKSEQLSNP
Sequence of EGFR (P00533 25-1210): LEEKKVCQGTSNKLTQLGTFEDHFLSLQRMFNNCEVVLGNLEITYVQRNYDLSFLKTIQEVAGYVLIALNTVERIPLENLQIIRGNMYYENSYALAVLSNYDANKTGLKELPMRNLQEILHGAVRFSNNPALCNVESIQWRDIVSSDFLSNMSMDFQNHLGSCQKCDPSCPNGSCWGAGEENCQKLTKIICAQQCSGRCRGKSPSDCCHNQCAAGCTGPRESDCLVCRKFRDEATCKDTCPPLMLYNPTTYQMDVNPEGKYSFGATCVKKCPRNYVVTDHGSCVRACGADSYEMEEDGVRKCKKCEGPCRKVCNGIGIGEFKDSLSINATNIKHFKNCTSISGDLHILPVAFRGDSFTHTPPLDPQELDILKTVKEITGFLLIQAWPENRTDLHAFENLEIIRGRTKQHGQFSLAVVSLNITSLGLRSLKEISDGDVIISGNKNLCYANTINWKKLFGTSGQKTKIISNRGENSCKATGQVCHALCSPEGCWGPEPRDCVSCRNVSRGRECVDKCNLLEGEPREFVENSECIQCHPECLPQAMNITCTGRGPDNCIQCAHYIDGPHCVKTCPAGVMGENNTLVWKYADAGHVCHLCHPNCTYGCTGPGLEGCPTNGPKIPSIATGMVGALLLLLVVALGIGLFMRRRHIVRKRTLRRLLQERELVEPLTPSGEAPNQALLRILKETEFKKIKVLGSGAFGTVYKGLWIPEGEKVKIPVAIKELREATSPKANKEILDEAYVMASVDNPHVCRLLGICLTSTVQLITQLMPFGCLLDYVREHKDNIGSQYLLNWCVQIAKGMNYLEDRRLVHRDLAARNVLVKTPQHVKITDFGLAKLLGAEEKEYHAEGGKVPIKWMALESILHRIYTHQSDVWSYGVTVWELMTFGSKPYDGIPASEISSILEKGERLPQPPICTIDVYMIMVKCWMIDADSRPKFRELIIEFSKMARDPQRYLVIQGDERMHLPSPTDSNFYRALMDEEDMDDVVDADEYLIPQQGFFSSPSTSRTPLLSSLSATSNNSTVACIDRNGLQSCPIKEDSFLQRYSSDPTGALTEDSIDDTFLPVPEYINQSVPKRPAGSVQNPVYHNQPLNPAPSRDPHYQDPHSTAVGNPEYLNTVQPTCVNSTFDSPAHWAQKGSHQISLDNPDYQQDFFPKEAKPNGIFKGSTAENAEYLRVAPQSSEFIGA

| Structure (SMILES) | melting point [°C] | IC50 (A549) [µM] | IC50 (MCF-7) [µM] | IC50 (HepG2) [µM] | IC50 (HCT116) [µM] | IC50 (EGFR) [µM] | IC50 (HDAC1) [µM] | IC50 (HDAC2) [µM] | IC50 (HDAC4) [µM] | IC50 (HDAC6) [µM] | IC50 (HDAC8) [µM] | Caspase-3 Conc (Caspase-3) [pg/mL] | Caspase-3 Conc (Caspase-3; listed as staurosporine) [pg/mL] | Caspase-8 Conc (Caspase-8) [ng/mL] | Caspase-8 Conc (Caspase-8; listed as staurosporine) [ng/mL] | Bax Conc (Bax) [pg/mL] | Bax Conc (Bax; listed as staurosporine) [pg/mL] |
| --- | --- | --- | --- | --- | --- | --- | --- | --- | --- | --- | --- | --- | --- | --- | --- | --- | --- |
| COc1cc(/C=C/C(=O)c2ccc(OCCCCC(=O)O)cc2)cc(OC)c1OC [2a, (E)-5-(4-(3-(3,4,5-Trimethoxyphenyl)Acryloyl)Phenoxy)Pentanoic Acid] | 102 to 105 | 44.4 ± 2.39 | 59.9 ± 3.23 | 88.4 ± 4.76 | 40.1 ± 2.16 |  |  |  |  |  |  |  |  |  |  |  |  |
| COc1cc(/C=C/C(=O)c2ccc(OCCCCCC(=O)O)cc2)cc(OC)c1OC [2b, (E)-6-(4-(3-(3,4,5-Trimethoxyphenyl)Acryloyl)Phenoxy)Hexanoic Acid] | 138 to 140 | 33.7 ± 1.82 | 39.4 ± 2.12 | 30.4 ± 1.64 | 23.7 ± 1.28 |  |  |  |  |  |  |  |  |  |  |  |  |
| COc1cc(/C=C/C(=O)c2ccc(OCCCCCCC(=O)O)cc2)cc(OC)c1OC [2c, (E)-7-(4-(3-(3,4,5-Trimethoxyphenyl)Acryloyl)Phenoxy)Heptanoic Acid] | 112 to 115 | 22.7 ± 1.22 | 14.8 ± 0.8 | 17.1 ± 0.92 | 16.5 ± 0.89 |  |  |  |  |  |  |  |  |  |  |  |  |
| COc1cc(-c2cc(-c3ccc(OCCCCC(=O)O)cc3)[nH]c(=O)c2C#N)cc(OC)c1OC [3a, 5-(4-(5-Cyano-6-Oxo-4-(3,4,5-Trimethoxyphenyl)-1,6-Dihydropyridin-2-yl)Phenoxy)Pentanoic Acid] | 224 to 228 | 31 ± 1.67 | 46.4 ± 2.54 | 65.8 ± 3.55 | 23.5 ± 1.27 |  |  |  |  |  |  |  |  |  |  |  |  |
| COc1cc(-c2cc(-c3ccc(OCCCCCC(=O)O)cc3)[nH]c(=O)c2C#N)cc(OC)c1OC [3b, 6-(4-(5-Cyano-6-Oxo-4-(3,4,5-Trimethoxyphenyl)-1,6-Dihydropyridin-2-yl)Phenoxy) Hexanoic Acid] |  | 15.3 ± 0.82 | 12.2 ± 0.65 | 16.2 ± 0.87 | 15.7 ± 0.85 |  |  |  |  |  |  |  |  |  |  |  |  |
| COc1cc(-c2cc(-c3ccc(OCCCCCCC(=O)O)cc3)[nH]c(=O)c2C#N)cc(OC)c1OC [3c, 7-(4-(5-Cyano-6-Oxo-4-(3,4,5-Trimethoxyphenyl)-1,6-Dihydropyridin-2-yl)Phenoxy) Heptanoic Acid] | 168 to 170 | 21.3 ± 1.15 | 23.7 ± 1.28 | 21.1 ± 1.14 | 13.9 ± 0.75 |  |  |  |  |  |  |  |  |  |  |  |  |
| COc1cc(/C=C/C(=O)c2ccc(OCCCCC(=O)NO)cc2)cc(OC)c1OC [4a, (E)-N-Hydroxy-5-(4-(3-(3,4,5-Trimethoxyphenyl)Acryloyl)Phenoxy) Pentanamide] | 220 to 224 | 2.07 ± 0.11 | 1.97 ± 0.11 | 3.62 ± 0.2 | 3.21 ± 0.17 | 0.111 ± 0.002 | 0.121 | 0.119 | 6.69 | 0.086 | 6.35 |  |  |  |  |  |  |
| COc1cc(/C=C/C(=O)c2ccc(OCCCCCCC(=O)NO)cc2)cc(OC)c1OC [4c, (E)-N-Hydroxy-7-(4-(3-(3,4,5-Trimethoxyphenyl)Acryloyl)Phenoxy)Heptanamide] | 122 to 128 | 1.93 ± 0.14 | 1.18 ± 0.06 | 2.54 ± 0.14 | 1.59 ± 0.09 | 0.091 ± 0.001 | 0.07 | 0.277 | 8.72 | 0.113 | 5.02 |  |  |  |  |  |  |
| COc1cc(-c2cc(-c3ccc(OCCCCC(=O)NO)cc3)[nH]c(=O)c2C#N)cc(OC)c1OC [5a, 5-(4-(5-Cyano-6-Oxo-4-(3,4,5-Trimethoxyphenyl)-1,6-Dihydropyridin-2-yl)Phenoxy)-N-Hydroxypentanamide] | 232 to 238 | 2.3 ± 0.12 | 4.89 ± 0.26 | 3.46 ± 0.19 | 4.67 ± 0.25 | 0.214 ± 0.004 | 0.051 | 0.256 | 17.5 | 0.222 | 19.6 |  |  |  |  |  |  |
| COc1cc(-c2cc(-c3ccc(OCCCCCC(=O)NO)cc3)[nH]c(=O)c2C#N)cc(OC)c1OC [5b, 6-(4-(5-Cyano-6-Oxo-4-(3,4,5-Trimethoxyphenyl)-1,6-Dihydropyridin-2-yl)Phenoxy)-N-Hydroxyhexanamide] | 198 to 204 | 18.8 ± 1.01 | 19.6 ± 1.05 | 28.3 ± 0.99 | 16.9 ± 3.71 |  |  |  |  |  |  |  |  |  |  |  |  |
| COc1cc(-c2cc(-c3ccc(OCCCCCCC(=O)NO)cc3)[nH]c(=O)c2C#N)cc(OC)c1OC [5c, 7-(4-(5-Cyano-6-Oxo-4-(3,4,5-Trimethoxyphenyl)-1,6-dihydropyridin-2-yl)phenoxy)-N-Hydroxyheptanamide] | 170 to 176 | 8.58 ± 0.46 | 12.1 ± 0.65 | 27.6 ± 1.49 | 9.47 ± 0.51 |  |  |  |  |  |  |  |  |  |  |  |  |
| CN[C@@H]1C[C@H]2O[C@@](C)([C@@H]1OC)n1c3ccccc3c3c4c(c5c6ccccc6n2c5c31)C(=O)NC4 [Staurosporine, reference compound] |  |  |  |  |  |  |  |  |  |  |  | 445.9 ± 15.39 | 445.9 | 1.343 ± 0.026 | 1.343 | 362.2 ± 9.61 | 362.2 |
